Results from publication PMC12186339, “Assessment of the structure–activity relationship of analogs of the Naegleria fowleri enolase inhibitor HEX” (RSC Medicinal Chemistry, 2025).
Like-named read-outs stand apart in the source and are kept apart here.

Legend:
[1] = system: N. fowleri strain TY (ATCC 30107) trophozoites; experiment: In vitro growth inhibition of N. fowleri trophozoites (CellTiter-Glo); assay type: cell-based, Naegleria fowleri; details: for EC50: Naegleria fowleri, read-out: N. fowleri EC50
Method: N. fowleri strain TY (ATCC 30107) trophozoites were routinely cultured in T-75 TC-treated flasks at 37 °C and 5% CO2 in media that has been previously described.[10] All compounds described were reconstituted in DMSO for testing, with final concentrations kept at <1% in the assays. To test the inhibitory activity of the compounds on cell growth, 1 × 10^4 cells per mL were seeded in white 96-well plates with 100 μM compound. Cells and compound were incubated at 37 °C and 5% CO2 for 48 hours. CellTiter-Glo reagent (Promega G7570) was then added to each well and luminescence was read using a BioTek Synergy H1 Microplate Reader. […] All reactions were performed in technical triplicate. If growth inhibition was <50% at the concentration tested, EC50 was reported to be above that value.

[2] = Human cell growth inhibition (CellTiter Blue); assay type: cell-based; details: HEK-293, 48 hours, read-out: Human cell line CC50
Method: To determine the amount of agent required to inhibit human cell growth 50% (the CC50 value), human embryonic kidney cells (ATCC HEK-293) were seeded at 5 × 10^4 cells per well in 100 μL of Dulbecco's modified Eagle's medium in tissue culture-treated clear bottom black 96 well plates (Gibco). Cells were incubated with compounds for 48 hours, followed by addition of CellTiter Blue (Promega, Madison, WI, USA) After a 3 hour incubation and equilibration for 15 minutes at room temperature, fluorescence (Ex: 560 nm, EM: 590 nm) was measured and the percentage of growth inhibition was calculated using untreated controls.

NfENO = NfENO (Naegleria fowleri, UniProt A0A6A5BXC3); experiment: NfENO pyruvate kinase/lactate dehydrogenase-coupled activity assay; assay type: biochemical; details: at 100 μM
Sequence of NfENO (A0A6A5BXC3 entry or part of it): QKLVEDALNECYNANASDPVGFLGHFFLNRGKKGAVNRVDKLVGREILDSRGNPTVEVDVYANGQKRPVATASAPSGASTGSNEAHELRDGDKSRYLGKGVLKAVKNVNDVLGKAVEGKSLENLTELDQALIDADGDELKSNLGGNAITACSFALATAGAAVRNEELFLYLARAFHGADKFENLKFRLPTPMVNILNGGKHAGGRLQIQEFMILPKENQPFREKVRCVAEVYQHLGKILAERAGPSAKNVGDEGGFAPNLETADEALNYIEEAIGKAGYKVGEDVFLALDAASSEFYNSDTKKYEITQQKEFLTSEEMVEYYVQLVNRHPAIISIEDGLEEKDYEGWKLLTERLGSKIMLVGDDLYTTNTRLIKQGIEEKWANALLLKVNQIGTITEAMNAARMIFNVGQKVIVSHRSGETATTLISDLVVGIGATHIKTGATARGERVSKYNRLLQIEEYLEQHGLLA
Method: Using the full-length protein (NF0118810, AmoebaDB, https://amoebadb.org/amoeba/app/), an E. coli codon-optimized construct was designed to express a truncated version of NfENO (residues 44–512) to improve solubility.[10]NfENO was heterologously expressed in BL2(DE3)R3 Rosetta cells and expression induced with 0.5 mM isopropyl-β-D-1-thiogalactopyranoside (IPTG) overnight at 37 °C. Cells were lysed using a lysozyme and 10% Triton X-100 based lysis buffer and purified with Ni-NTA agarose beads (Qiagen). Activity assays were conducted in triplicate using a pyruvate kinase/lactate dehydrogenase-coupled assay. Approximately 75 nM of NfENO in assay buffer (100 mM HEPES, pH 8.5, 3.3 mM MgSO4, 120 mM KCl, 1.75 mM ADP, 1 U pyruvate kinase/lactate dehydrogenase, and 0.4 mM NADH) was added to black 96-well plates. For assays in the presence of inhibitor, compounds were resuspended in DMSO, added to the wells, and incubated with enzyme in assay buffer for 15 minutes at room temperature. DMSO was included as a vehicle control. Assays were initiated by addition of substrate solution (3.75 mM 2-PG) and fluorescence emission at 460 nm after excitation at 360 nm was monitored every 20 seconds for 4 minutes using a Biotek Synergy H1 microplate reader. The rate of fluorescence reduction was measured to monitor the conversion of NADH to NAD+. […]

[3] = ATCC30107, trophozoites, 48 hours

EC50 [1, 3]	SMILES	EC50 ([1]; ATCC30107, 48 h)	further results
–	NN1CCCC(P(=O)(O)O)C1=O (stereo not shown) [Compound 1, (1-Amino-2-oxopiperidin-3-yl)phosphonic acid]	> 25 µM	–
> 25 µM	O=C1C(P(=O)(O)O)c2ccccc2CN1O (stereo not shown) [Compound 2, (2-Hydroxy-3-oxo-1,2,3,4-tetrahydroisoquinolin-4-yl)phosphonic acid]	–	activity on N. fowleri growth ([1]; at higher concentrations than 25 μM (100 μM screen), 48 hours): modest activity; CC50 at 48 h ([2]; HEK-293 cells): > 25 µM
–	O=C1C(P(=O)(O)O)CCCN1CCO (stereo not shown) [Compound 3, (1-(2-Hydroxyethyl)-2-oxopiperidin-3-yl)phosphonic acid]	> 25 µM	–
> 25 µM	O=C1C(S(=O)(=O)O)CCCN1O (stereo not shown) [Compound 4, 1-Hydroxy-2-oxopiperidine-3-sulfonic acid]	–	–
> 25 µM	O=C1[C@@H](P(=O)(O)O)[C@@H]2CCCC[C@H]2CN1O [Compound 5, ((4S,4aR,8aR)-2-Hydroxy-3-oxodecahydroisoquinolin-4-yl)phosphonic acid]	–	–
–	O=C1NCCCC1P(=O)(O)O (stereo not shown) [Compound 6, (2-Oxopiperidin-3-yl)phosphonic acid]	> 25 µM	effect on NfENO (NfENO): no effect
–	O=C1SCCCC1P(=O)(O)O (stereo not shown) [Compound 7, (2-Oxotetrahydro-2H-thiopyran-3-yl)phosphonic acid]	> 25 µM	effect on NfENO (NfENO): no effect
–	O=C1C(P(=O)(O)O)CCCN1O (stereo not shown) [HEX, (1-hydroxy-2-oxopiperidin-3-yl)phosphonic acid, reference compound]	0.21 ± 0.02 µM	CC50 at 48 h [2]: > 100 µM
